{"source": "paper PMC7150870", "about": "(Toxins, 2020)", "key": {"[1]": {"system": "human fibroblasts", "conditions": "50 µM for 24 h; cited from earlier work"}, "[2]": {"system": "HEK 293T cells", "format": "cell-based, human"}, "[3]": {"system": "hepatocyte cells", "conditions": "cited from earlier work"}, "[4]": {"system": "HEK 293T cells"}, "[5]": {"system": "TNF-α", "conditions": "cited from earlier work"}, "[6]": {"system": "HEK293T cells", "format": "cell-based, human"}, "[7]": {"conditions": "5.2–15.5 mM; cited from earlier work"}, "[8]": {"system": "Caco-2 cells"}, "[9]": {"system": "HepG2, Caco-2, RAW 264.7, and HEK 293T cells", "conditions": "read-out: IC50 range in studied cells"}, "[10]": {"target": "T1, P-gp (Homo sapiens, UniProt P08183)", "T1 sequence (P08183 whole entry, looked up)": "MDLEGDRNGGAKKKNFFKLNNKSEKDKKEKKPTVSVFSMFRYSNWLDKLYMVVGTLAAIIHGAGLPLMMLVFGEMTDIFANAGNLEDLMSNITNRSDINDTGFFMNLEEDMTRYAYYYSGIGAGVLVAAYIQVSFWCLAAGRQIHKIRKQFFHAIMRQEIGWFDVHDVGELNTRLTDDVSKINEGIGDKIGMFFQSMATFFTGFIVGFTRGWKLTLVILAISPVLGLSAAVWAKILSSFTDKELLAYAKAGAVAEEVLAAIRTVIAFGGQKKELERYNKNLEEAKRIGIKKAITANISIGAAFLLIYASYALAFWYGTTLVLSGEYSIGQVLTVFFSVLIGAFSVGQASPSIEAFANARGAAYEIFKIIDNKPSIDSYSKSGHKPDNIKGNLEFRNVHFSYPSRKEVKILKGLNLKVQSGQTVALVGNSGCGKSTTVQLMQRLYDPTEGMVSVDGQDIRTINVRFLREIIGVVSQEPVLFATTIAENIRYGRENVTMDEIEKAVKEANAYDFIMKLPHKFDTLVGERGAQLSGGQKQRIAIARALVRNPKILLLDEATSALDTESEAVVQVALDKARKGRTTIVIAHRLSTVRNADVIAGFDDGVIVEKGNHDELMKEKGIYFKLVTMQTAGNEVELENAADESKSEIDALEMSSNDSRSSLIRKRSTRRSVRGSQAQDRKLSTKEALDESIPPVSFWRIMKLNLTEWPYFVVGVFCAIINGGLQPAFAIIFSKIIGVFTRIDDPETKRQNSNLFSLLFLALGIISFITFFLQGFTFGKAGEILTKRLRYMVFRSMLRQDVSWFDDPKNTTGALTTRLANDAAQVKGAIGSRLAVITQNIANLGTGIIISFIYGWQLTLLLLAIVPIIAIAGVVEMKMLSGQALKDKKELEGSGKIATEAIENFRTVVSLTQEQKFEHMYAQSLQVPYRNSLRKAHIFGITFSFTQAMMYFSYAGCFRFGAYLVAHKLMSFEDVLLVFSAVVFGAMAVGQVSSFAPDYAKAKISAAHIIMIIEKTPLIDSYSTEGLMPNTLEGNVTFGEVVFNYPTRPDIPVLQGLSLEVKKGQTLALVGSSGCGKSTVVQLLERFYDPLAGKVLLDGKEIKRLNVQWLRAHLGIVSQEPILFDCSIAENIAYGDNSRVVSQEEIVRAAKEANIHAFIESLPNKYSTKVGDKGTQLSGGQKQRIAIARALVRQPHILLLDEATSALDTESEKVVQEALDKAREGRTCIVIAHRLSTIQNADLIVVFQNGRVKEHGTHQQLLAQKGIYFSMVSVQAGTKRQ", "conditions": "cited from earlier work"}, "[11]": {"system": "various mammalian cells", "conditions": "cited from earlier work"}, "[12]": {"system": "HEK293T", "format": "cell-based, human"}, "[13]": {"system": "RAW 264.7", "format": "cell-based, mouse"}, "[14]": {"system": "Caco-2", "format": "cell-based, human"}, "[15]": {"system": "epithelial cell layers", "conditions": "cited from earlier work"}, "[16]": {"system": "HepG2", "format": "cell-based, human"}, "[17]": {"target": "T1, P-gp"}, "[18]": {"conditions": "human (Caco-2), mouse (RAW 264.7)"}}, "note": "Like-named read-outs stand apart in the source and are kept apart here. Marks after values point to notes of the source that are not given here.", "data": [{"smiles": "COc1cc(C2Oc3cc([C@H]4Oc5cc(O)cc(O)c5C(=O)[C@@H]4O)ccc3OC2CO)ccc1O", "note": "(stereo partly shown) [Silibinin, silibinin, reference compound]", "values": [{"measurement": "cytotoxic effect", "setting": "[1]", "result": "no significant cytotoxic effect"}, {"measurement": "decrease of cell viability compared to cells cultured with a single mycotoxin", "setting": "[2]", "result": "about 30%"}, {"measurement": "effect against OTA cytotoxicity", "setting": "[3]", "result": "protective effect"}, {"measurement": "percentage of DNA in comet tail with respect to the negative control", "setting": "[4]", "result": "did not induce genotoxic effects"}, {"measurement": "OTA-induced TNF-α level reduced to", "setting": "[5]", "result": 70, "unit": "%"}, {"measurement": "doses completely blocking OTA-induced TNF-α", "setting": "[5]", "result": "1 to 26", "unit": "µM"}, {"measurement": "reduction of cell viability by sole silibinin treatment", "setting": "[6]", "result": 45, "unit": "%"}, {"measurement": "amount of DNA in the comet tail compared to positive control", "setting": "[7]", "result": "reduced the amount of DNA in the comet tail"}, {"measurement": "metabolites found by non-target U-HPLC-MS analysis", "setting": "[8]", "result": "sulfate derivative"}, {"measurement": "transepithelial transport, Apical Medium", "setting": "[8]; [18]", "result": "44.34 ± 1.96^cd %"}, {"measurement": "transepithelial transport, Basolateral Medium", "setting": "[8]; [18]", "result": "23.24 ± 1.79^de %"}, {"measurement": "transepithelial transport, Caco-2 Cells", "setting": "[8]; [18]", "result": "0.00 ± 0.00^a %"}, {"measurement": "transepithelial transport, Raw 264.7 Cells", "setting": "[8]; [18]", "result": "0.00 ± 0.00^a %"}, {"measurement": "transepithelial transport, Total", "setting": "[8]; [18]", "result": "67.58 ± 2.95^cd %"}]}, {"smiles": "CC(=O)OC[C@]12C[C@H](OC(=O)CC(C)C)C(C)=C[C@H]1O[C@@H]1[C@H](O)[C@@H](OC(C)=O)[C@@]2(C)[C@]12CO2", "note": "[T-2, T-2 toxin]", "values": [{"measurement": "combination index, silibinin 3.4 µM", "setting": "[2]", "result": "0.99 ± 0.02", "unit": "Add"}, {"measurement": "combination index, silibinin 6.8 µM", "setting": "[2]", "result": "1.46 ± 0.14", "unit": "Ant"}, {"measurement": "combination index, silibinin 13.6 µM", "setting": "[2]", "result": "1.82 ± 0.06", "unit": "Ant"}, {"measurement": "combination index, silibinin 27.3 µM", "setting": "[2]", "result": "1.41 ± 0.11", "unit": "Ant"}, {"measurement": "combination index, silibinin 54.5 µM", "setting": "[2]", "result": "0.91 ± 0.04", "unit": "Add"}, {"measurement": "combination index, silibinin 109.00 µM", "setting": "[2]", "result": "1.00 ± 0.08", "unit": "Add"}, {"measurement": "silibinin pretreatment concentration with the strongest antagonism", "setting": "[2]", "result": 13.6, "unit": "µM"}, {"measurement": "type of interaction, silibinin 3.4 µM", "setting": "[2]", "result": "0.99 ± 0.02 Add (key: Syn: Combination index (CI) < 0.9; Add: 0.9 ≤ CI ≤ 1; Ant: CI > 1)"}, {"measurement": "type of interaction, silibinin 6.8 µM", "setting": "[2]", "result": "1.46 ± 0.14 Ant (key: Syn: Combination index (CI) < 0.9; Add: 0.9 ≤ CI ≤ 1; Ant: CI > 1)"}, {"measurement": "type of interaction, silibinin 13.6 µM", "setting": "[2]", "result": "1.82 ± 0.06 Ant (key: Syn: Combination index (CI) < 0.9; Add: 0.9 ≤ CI ≤ 1; Ant: CI > 1)"}, {"measurement": "type of interaction, silibinin 27.3 µM", "setting": "[2]", "result": "1.41 ± 0.11 Ant (key: Syn: Combination index (CI) < 0.9; Add: 0.9 ≤ CI ≤ 1; Ant: CI > 1)"}, {"measurement": "type of interaction, silibinin 54.5 µM", "setting": "[2]", "result": "0.91 ± 0.04 Add (key: Syn: Combination index (CI) < 0.9; Add: 0.9 ≤ CI ≤ 1; Ant: CI > 1)"}, {"measurement": "type of interaction, silibinin 109.00 µM", "setting": "[2]", "result": "1.00 ± 0.08 Add (key: Syn: Combination index (CI) < 0.9; Add: 0.9 ≤ CI ≤ 1; Ant: CI > 1)"}, {"measurement": "IC50", "setting": "[9]", "result": "3.57 to 13.4", "unit": "nM"}, {"measurement": "P-gp substrate", "setting": "[10]", "result": "not a substrate of P-gp"}, {"measurement": "IC50", "setting": "[11]", "result": "3 to 500", "unit": "nM"}, {"measurement": "IC50", "setting": "[12]", "result": "3.87 ± 0.27", "unit": "nM"}, {"measurement": "IC50", "setting": "[13]", "result": "3.57 ± 0.27", "unit": "nM"}, {"measurement": "IC50", "setting": "[6]; read-out: IC50 halving the HEK293T cells viability", "result": 7, "unit": "nM"}, {"measurement": "IC50", "setting": "[14]", "result": "13.4 ± 1.07", "unit": "nM"}, {"measurement": "metabolites found by non-target U-HPLC-MS analysis", "setting": "[8]", "result": "3´-hydroxy, 3-hydroxy-15-deacetyl"}, {"measurement": "transepithelial transport, Apical Medium", "setting": "[8]", "result": "11.63 ± 0.62^a %"}, {"measurement": "transepithelial transport, Basolateral Medium", "setting": "[8]", "result": "28.13 ± 0.48^e %"}, {"measurement": "transepithelial transport, Caco-2 Cells", "setting": "[8]", "result": "0.01 ± 0.00^a %"}, {"measurement": "transepithelial transport, Raw 264.7 Cells", "setting": "[8]", "result": "0.01 ± 0.00^a %"}, {"measurement": "transepithelial transport, Total", "setting": "[8]", "result": "39.77 ± 0.98^b %"}, {"measurement": "transport through the epithelial cell layers", "setting": "[15]", "result": "≤ 24", "unit": "%"}, {"measurement": "IC50", "setting": "[16]", "result": "11.4 ± 0.37", "unit": "nM"}, {"measurement": "P-gp activation (ATP consumption)", "setting": "[17]", "result": "activated P-gp in dose-dependent manner"}]}]}
